Laboratory results reported in the NIST ThermoML archive (doi:10.1021/acs.jced.8b00466).
Numbers after ± are expanded uncertainties.

Experiment: wn = mass fraction of the nth substance listed
Conditions: 102 kPa, Liquid, Vibrating tube method

O=S(=O)(O)O [sulfuric acid] + O
mass density [kg/m3]
Conditions	273.15 K	283.15 K	293.15 K	298.15 K	303.15 K	313.15 K	323.15 K	333.15 K
w1 = 0.0966	1069.26 ± 16	1066.08 ± 16	1062.3 ± 15	1060.23 ± 15	1058.04 ± 15	1053.6 ± 15	1049.23 ± 15	1043.53 ± 15
w1 = 0.1151	1085.84 ± 15	1082.07 ± 15	1077.83 ± 14	1075.55 ± 14	1073.22 ± 14	1068.89 ± 13	1063.56 ± 14	1058.71 ± 13
w1 = 0.1365	1101.81 ± 15	1097.5 ± 15	1092.86 ± 14	1090.39 ± 14	1087.86 ± 14	1082.6 ± 13	1078.45 ± 13	1072.64 ± 13
w1 = 0.1536	1114.2 ± 16	1109.5 ± 15	1104.52 ± 15	1101.94 ± 15	1099.31 ± 15	1093.86 ± 14	1089.88 ± 14	1084.63 ± 14
w1 = 0.1728	1128.95 ± 15	1123.83 ± 15	1118.46 ± 15	1115.73 ± 15	1112.95 ± 14	1107.33 ± 14	1101.93 ± 14	1095.88 ± 14
w1 = 0.192	1145.91 ± 16	1140.32 ± 16	1134.59 ± 16	1131.69 ± 16	1128.88 ± 15	1123.78 ± 15	1118.59 ± 15	1113.22 ± 15
w1 = 0.2112	1159.41 ± 17	1153.51 ± 16	1147.52 ± 16	1144.52 ± 16	1141.48 ± 16	1135.36 ± 16	1129.37 ± 15	1124.62 ± 15
w1 = 0.2304	1177.19 ± 17	1170.92 ± 16	1164.6 ± 16	1161.54 ± 16	1158.39 ± 15	1152.03 ± 15	1148.5 ± 15	1140.31 ± 15
w1 = 0.2409	1185.57 ± 17	1179.14 ± 17	1172.69 ± 16	1169.48 ± 16	1166.27 ± 16	1160.54 ± 16	1154.05 ± 16	1147.47 ± 15
w1 = 0.2688	1209.44 ± 17	1201.63 ± 16	1194.85 ± 16	1191.58 ± 16	1188.22 ± 16	1181.52 ± 16	1174.82 ± 16	1168.95 ± 16
w1 = 0.288	1224.11 ± 17	1217.14 ± 16	1210.18 ± 16	1206.76 ± 16	1203.33 ± 16	1196.6 ± 16	1189.76 ± 16	1183.88 ± 16
w1 = 0.3072	1241.05 ± 16	1233.47 ± 16	1227.15 ± 16	1223.62 ± 16	1220.11 ± 16	1213.75 ± 16	1206.84 ± 16	1200.67 ± 16
w1 = 0.3265	1256.77 ± 17	1249.51 ± 17	1242.27 ± 16	1238.85 ± 16	1235.29 ± 16	1228.03 ± 16	1221.02 ± 16	1214.92 ± 16
w1 = 0.3457	1272.18 ± 17	1264.81 ± 17	1257.51 ± 17	1253.89 ± 17	1250.3 ± 17	1243.38 ± 16	1236.27 ± 16	1230.89 ± 16
w1 = 0.3648	1288.04 ± 17	1280.59 ± 17	1273.21 ± 17	1269.57 ± 17	1265.94 ± 17	1258.73 ± 17	1251.57 ± 17	1244.44 ± 16
w1 = 0.384	1305.68 ± 18	1298.19 ± 17	1290.73 ± 17	1287.05 ± 17	1283.37 ± 17	1276.2 ± 17	1268.99 ± 17	1263.24 ± 17
w1 = 0.4	1319.14 ± 18	1311.55 ± 18	1304.07 ± 18	1300.36 ± 18	1296.68 ± 18	1289.37 ± 18	1282.4 ± 18	1275.2 ± 18
